Experimental data from ChEMBL document CHEMBL1140250, “6-Aryl-4-methylsulfanyl-2H-pyran-2-one-3-carbonitriles as PPAR-gamma activators” (Bioorg Med Chem Lett, 2005).

Columns and labels:
Format in all cases: functional
[1] = target: T1, Peroxisome proliferator-activated receptor gamma (Homo sapiens) (UniProt P37231); experiment: In vitro agonist activity against human PPAR-gamma in transactivation assay at 10 nM
T1 sequence (whole entry): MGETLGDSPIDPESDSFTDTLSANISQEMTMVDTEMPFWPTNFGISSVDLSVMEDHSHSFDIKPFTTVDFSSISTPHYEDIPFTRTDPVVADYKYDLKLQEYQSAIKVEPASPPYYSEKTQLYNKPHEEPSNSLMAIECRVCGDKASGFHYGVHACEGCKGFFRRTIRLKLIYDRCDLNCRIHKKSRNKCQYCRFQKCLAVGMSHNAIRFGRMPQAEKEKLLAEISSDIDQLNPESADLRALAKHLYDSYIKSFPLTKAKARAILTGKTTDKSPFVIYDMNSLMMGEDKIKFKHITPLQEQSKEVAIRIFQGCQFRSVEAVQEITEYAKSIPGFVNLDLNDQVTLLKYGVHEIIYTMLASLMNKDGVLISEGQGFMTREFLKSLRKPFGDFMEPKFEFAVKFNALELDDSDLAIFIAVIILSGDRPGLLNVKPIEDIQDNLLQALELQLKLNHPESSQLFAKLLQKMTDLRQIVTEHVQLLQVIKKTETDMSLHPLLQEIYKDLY

[2] = target: T1, Peroxisome proliferator-activated receptor gamma (Homo sapiens); experiment: In vitro agonist activity against human PPAR-gamma in transactivation assay at 100 nM
[3] = target: T1, Peroxisome proliferator-activated receptor gamma (Homo sapiens); experiment: In vitro agonist activity against human PPAR-gamma receptor in transactivation assay at 1000 nM

Row | Compound | Fold activation [1] | Fold activation [2] | Fold activation [3]
1 | C[S+]([O-])CCOc1ccc(-c2cc([S+](C)[O-])c(C#N)c(=O)o2)cc1 (centres undefined) | 9 | 14 | 27
2 | CN(CCOc1ccc(CC2SC(=O)NC2=O)cc1)c1ccccn1 (centres undefined) | 9 | 28 | 176
3 | CSc1cc(-c2ccc(OCN3CCOCC3)cc2)oc(=O)c1C#N | 3 | 4 | 5
4 | CSc1cc(-c2ccc(OCCN(Cc3ccccc3)SC)cc2)oc(=O)c1C#N | 4 | 6 | 7
5 | COC(=O)c1c(SC)cc(-c2ccc(OCCN3CCCCC3)cc2)oc1=O | 3 | 3 | 17
6 | CSc1cc(-c2ccc(OCCSc3ccccc3)cc2)oc(=O)c1C#N | 3 | 5 | 14
7 | CSc1cc(-c2ccc(OCCN(C)Cc3ccccc3)cc2)oc(=O)c1C#N | 5 | 4 | 7
8 | CSc1cc(-c2ccc(OCCN(C)C)cc2)oc(=O)c1C#N | 4 | 6 | 7
9 | COC(=O)c1c(SC)cc(-c2ccc(OCCSC)cc2)oc1=O | 9 | 13 | 44
10 | CSCCOc1ccc(-c2cc(SC)c(C#N)c(=O)o2)cc1 | 12 | 22 | 60
11 | CSc1cc(-c2ccc(OCCc3nccc4c3CCCC4)cc2)oc(=O)c1C#N | 4 | 5 | 19
12 | CCSCCOc1ccc(-c2cc(SCC)c(C#N)c(=O)o2)cc1 | 7 | 11 | 30
13 | CSc1cc(-c2ccc(OCCN3CCCCC3)cc2)oc(=O)c1C#N | 3 | 2 | 16
